Measurements from US20100168102A9, “Amide Derivatives as Kinase Inhibitors” (Devgen NV, priority 2005, published 2010).

Experiments:
PKC epsilon = biological target: T1, PKC epsilon (Homo sapiens, UniProt Q02156); assay: Biochemical assay for PKC epsilon (fluorescence polarization, Protein Kinase C Assay Kit, Red); settings: read-out: IC50 μM PKCε
T1 construct: purchased Invitrogen P2282
T1 sequence (Q02156 1-737): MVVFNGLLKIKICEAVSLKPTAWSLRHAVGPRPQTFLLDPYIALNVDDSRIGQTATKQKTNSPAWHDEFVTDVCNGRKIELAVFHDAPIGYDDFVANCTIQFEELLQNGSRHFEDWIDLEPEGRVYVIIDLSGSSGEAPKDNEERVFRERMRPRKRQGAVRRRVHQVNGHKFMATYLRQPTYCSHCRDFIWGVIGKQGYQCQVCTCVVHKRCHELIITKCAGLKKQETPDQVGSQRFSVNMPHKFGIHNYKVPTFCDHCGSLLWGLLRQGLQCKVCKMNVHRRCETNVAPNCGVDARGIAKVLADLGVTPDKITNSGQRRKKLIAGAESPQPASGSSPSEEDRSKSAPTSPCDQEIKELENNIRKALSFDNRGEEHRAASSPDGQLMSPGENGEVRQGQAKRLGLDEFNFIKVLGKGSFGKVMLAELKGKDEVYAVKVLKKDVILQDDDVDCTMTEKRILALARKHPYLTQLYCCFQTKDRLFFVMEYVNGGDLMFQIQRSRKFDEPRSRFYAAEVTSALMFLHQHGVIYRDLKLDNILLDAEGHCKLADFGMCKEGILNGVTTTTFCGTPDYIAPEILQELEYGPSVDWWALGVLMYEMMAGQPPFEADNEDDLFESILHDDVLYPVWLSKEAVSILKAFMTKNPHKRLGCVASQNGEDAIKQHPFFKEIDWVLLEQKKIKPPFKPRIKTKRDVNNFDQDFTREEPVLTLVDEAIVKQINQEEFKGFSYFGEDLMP
Outline: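 Read-out was fluorescence-polarization competition between phosphorylated substrate and a rhodamine PKC tracer for an anti-phosphoserine antibody, added with EDTA stop after an 80 min room-temperature kinase reaction with ATP and protein substrate (Mg2+/Ca2+ buffer). Enzyme (10 ng/ml final) was preincubated with compound for 30 min.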

human ROCKα/ROCKII mix = biological target: T2, human ROCKα/ROCKII mix (Homo sapiens, UniProt O75116); assay: Biochemical assay for ROCK (fluorescence polarization, ROCK IMAP Kit)
T2 construct: purchased Upstate Biotechnology 14-451
T2 sequence (O75116 11-552 limits assumed): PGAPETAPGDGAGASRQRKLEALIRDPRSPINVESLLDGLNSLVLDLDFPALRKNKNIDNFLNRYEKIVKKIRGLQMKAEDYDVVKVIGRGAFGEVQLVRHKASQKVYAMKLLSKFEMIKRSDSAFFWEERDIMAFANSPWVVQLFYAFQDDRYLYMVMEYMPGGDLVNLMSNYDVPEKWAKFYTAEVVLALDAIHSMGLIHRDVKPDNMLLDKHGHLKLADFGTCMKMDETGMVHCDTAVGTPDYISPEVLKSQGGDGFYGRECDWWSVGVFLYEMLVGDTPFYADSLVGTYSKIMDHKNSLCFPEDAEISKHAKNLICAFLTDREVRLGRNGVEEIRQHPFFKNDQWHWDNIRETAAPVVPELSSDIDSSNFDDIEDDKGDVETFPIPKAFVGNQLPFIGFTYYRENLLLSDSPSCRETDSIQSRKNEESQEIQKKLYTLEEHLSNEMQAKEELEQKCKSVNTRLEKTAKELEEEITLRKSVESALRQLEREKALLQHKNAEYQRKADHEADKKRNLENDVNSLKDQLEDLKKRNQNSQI

SMILES	IC50 (PKC epsilon)	IC50 (human ROCKα/ROCKII mix)
COc1ccc(C2(C(=O)N3CCCC3C(N)c3ccc(C(=O)Nc4ccncc4)cc3)CCCC2)cc1 (stereo not shown) [Compound 530, 4-(Amino-{1-[1-(4-methoxy-phenyl)-cyclopentanecarbonyl]-pyrrolidin-2-yl}-methyl)-N-pyridin-4-yl-benzamide]	0.5 to 5 µM	0.5 to 5 µM
COc1ccc(CC(=O)N2CCCC2C(N)c2ccc(C(=O)Nc3ccncc3)cc2)c(OC)c1 (stereo not shown) [Compound 531, 4-(Amino-{1-[2-(2,4-dimethoxy-phenyl)-acetyl]-pyrrolidin-2-yl}-methyl)-N-pyridin-4-yl-benzamide]	0.5 to 5 µM	0.5 to 5 µM
NC(c1ccc(C(=O)Nc2ccncc2)cc1)C1CCCN1C(=O)Cc1c[nH]c2ccccc12 (stereo not shown) [Compound 544, 4-{Amino-[1-(2-1H-indol-3-yl-acetyl)-pyrrolidin-2-yl]-methyl}-N-pyridin-4-yl-benzamide]	0.5 to 5 µM	0.5 to 5 µM
NC(c1ccc(C(=O)Nc2ccncc2)cc1)C1CCCN1C(=O)Cc1cccs1 (stereo not shown) [Compound 547, 4-{Amino-[1-(2-thiophen-2-yl-acetyl)-pyrrolidin-2-yl]-methyl}-N-pyridin-4-yl-benzamide]	5 to 50 µM	0.05 to 0.5 µM
NC(c1ccc(C(=O)Nc2ccncc2)cc1)C1CCCN1C(=O)C1(c2cccs2)CC1 (stereo not shown) [Compound 549, 4-{Amino-[1-(1-thiophen-2-yl-cyclopropanecarbonyl)-pyrrolidin-2-yl]-methyl}-N-pyridin-4-yl-benzamide]	5 to 50 µM	0.5 to 5 µM
NC(c1ccc(C(=O)Nc2ccncc2)cc1)C1CCCN1C(=O)C1(c2ccsc2)CC1 (stereo not shown) [Compound 551, 4-{Amino-[1-(1-thiophen-3-yl-cyclopropanecarbonyl)-pyrrolidin-2-yl]-methyl}-N-pyridin-4-yl-benzamide]	5 to 50 µM	0.5 to 5 µM
NC(c1ccc(C(=O)Nc2ccncc2)cc1)C1CCCN1C(=O)C1Cc2ccccc21 (stereo not shown) [Compound 552, 4-{Amino-[1-(bicyclo[4.2.0]octa-1,3,5-triene-7-carbonyl)-pyrrolidin-2-yl]-methyl}-N-pyridin-4-yl-benzamide]	5 to 50 µM	0.05 to 0.5 µM
NC(c1ccc(C(=O)Nc2ccncc2)cc1)C1CCCN1C(=O)Cc1cccc(Br)c1 (stereo not shown) [Compound 557, 4-(Amino-{1-[2-(3-bromo-phenyl)-acetyl]-pyrrolidin-2-yl}-methyl)-N-pyridin-4-yl-benzamide]	0.5 to 5 µM	0.05 to 0.5 µM
NC(c1ccc(C(=O)Nc2ccncc2)cc1)C1CCCN1C(=O)Cc1ccc(C(F)(F)F)cc1 (stereo not shown) [Compound 559, 4-(Amino-{1-[2-(4-trifluoromethyl-phenyl)-acetyl]-pyrrolidin-2-yl}-methyl)-N-pyridin-4-yl-benzamide]	5 to 50 µM	0.5 to 5 µM
NC(c1ccc(C(=O)Nc2ccncc2)cc1)C1CCCN1C(=O)Cc1ccc(Cl)cc1 (stereo not shown) [Compound 561, 4-(Amino-{1-[2-(4-chloro-phenyl)-acetyl]-pyrrolidin-2-yl}-methyl)-N-pyridin-4-yl-benzamide]	0.5 to 5 µM	0.5 to 5 µM
CC(C)C(C(=O)N1CCCC1C(N)c1ccc(C(=O)Nc2ccncc2)cc1)c1ccc(Cl)cc1 (stereo not shown) [Compound 562, 4-(Amino-{1-[2-(4-chloro-phenyl)-3-methyl-butyryl]-pyrrolidin-2-yl}-methyl)-N-pyridin-4-yl-benzamide]	0.5 to 5 µM	0.5 to 5 µM
CC(C)(C(=O)N1CCCC1C(N)c1ccc(C(=O)Nc2ccncc2)cc1)c1ccc(Cl)cc1 (stereo not shown) [Compound 563, 4-(Amino-{1-[2-(4-chloro-phenyl)-2-methyl-propionyl]-pyrrolidin-2-yl}-methyl)-N-pyridin-4-yl-benzamide]	0.5 to 5 µM	0.5 to 5 µM
NC(c1ccc(C(=O)Nc2ccncc2)cc1)C1CCCN1C(=O)C1(c2ccc(Cl)cc2)CC1 (stereo not shown) [Compound 564, 4-(Amino-{1-[1-(4-chloro-phenyl)-cyclopropanecarbonyl]-pyrrolidin-2-yl}-methyl)-N-pyridin-4-yl-benzamide]	0.5 to 5 µM	0.5 to 5 µM
NC(c1ccc(C(=O)Nc2ccncc2)cc1)C1CCCN1C(=O)C1(c2ccc(Cl)cc2)CCC1 (stereo not shown) [Compound 565, 4-(Amino-{1-[1-(4-chloro-phenyl)-cyclobutanecarbonyl]-pyrrolidin-2-yl}-methyl)-N-pyridin-4-yl-benzamide]	0.5 to 5 µM	0.5 to 5 µM
NC(c1ccc(C(=O)Nc2ccncc2)cc1)C1CCCN1C(=O)Cc1cccc(F)c1 (stereo not shown) [Compound 569]	5 to 50 µM	0.5 to 5 µM

Next, values leading:

IC50 (PKC epsilon)	IC50 (human ROCKα/ROCKII mix)	SMILES
0.5 to 5 µM	0.5 to 5 µM	COc1ccc(C2(C(=O)N3CCCC3C(N)c3ccc(C(=O)Nc4ccncc4)cc3)CC2)cc1 (stereo not shown) [Compound 529, 4-(Amino-{1-[1-(4-methoxy-phenyl)-cyclopropanecarbonyl]-pyrrolidin-2-yl}-methyl)-N-pyridin-4-yl-benzamide]
5 to 50 µM	0.5 to 5 µM	COc1cc(CC(=O)N2CCCC2C(N)c2ccc(C(=O)Nc3ccncc3)cc2)cc(OC)c1OC (stereo not shown) [Compound 532, 4-(Amino-{1-[2-(3,4,5-trimethoxy-phenyl)-acetyl]-pyrrolidin-2-yl}-methyl)-N-pyridin-4-yl-benzamide]
0.5 to 5 µM	0.5 to 5 µM	NC(c1ccc(C(=O)Nc2ccncc2)cc1)C1CCCN1C(=O)Cc1ccc2ccccc2c1 (stereo not shown) [Compound 535, 4-{Amino-[1-(2-naphthalen-2-yl-acetyl)-pyrrolidin-2-yl]-methyl}-N-pyridin-4-yl-benzamide]
0.5 to 5 µM	0.5 to 5 µM	NC(c1ccc(C(=O)Nc2ccncc2)cc1)C1CCCN1C(=O)Cc1cccc2ccccc12 (stereo not shown) [Compound 536, 4-{Amino-[1-(2-naphthalen-1-yl-acetyl)-pyrrolidin-2-yl]-methyl}-N-pyridin-4-yl-benzamide]
0.5 to 5 µM	0.5 to 5 µM	NC(c1ccc(C(=O)Nc2ccncc2)cc1)C1CCCN1C(=O)Cc1ccc(-c2ccccc2)cc1 (stereo not shown) [Compound 537, 4-{Amino-[1-(2-biphenyl-4-yl-acetyl)-pyrrolidin-2-yl]-methyl}-N-pyridin-4-yl-benzamide]
5 to 50 µM	0.5 to 5 µM	NC(c1ccc(C(=O)Nc2ccncc2)cc1)C1CCCN1C(=O)Cc1ccc(O)c([N+](=O)[O-])c1 (stereo not shown) [Compound 540, 4-(Amino-{1-[2-(4-hydroxy-3-nitro-phenyl)-acetyl]-pyrrolidin-2-yl}-methyl)-N-pyridin-4-yl-benzamide]
5 to 50 µM	0.5 to 5 µM	NC(c1ccc(C(=O)Nc2ccncc2)cc1)C1CCCN1C(=O)Cc1cncc(Br)c1 (stereo not shown) [Compound 543, 4-(Amino-{1-[2-(5-bromo-pyridin-3-yl)-acetyl]-pyrrolidin-2-yl}-methyl)-N-pyridin-4-yl-benzamide]
0.5 to 5 µM	0.5 to 5 µM	NC(c1ccc(C(=O)Nc2ccncc2)cc1)C1CCCN1C(=O)Cc1csc(-c2ccccc2)n1 (stereo not shown) [Compound 546, 4-(Amino-{1-[2-(2-phenyl-thiazol-4-yl)-acetyl]-pyrrolidin-2-yl}-methyl)-N-pyridin-4-yl-benzamide]
0.5 to 5 µM	0.5 to 5 µM	NC(c1ccc(C(=O)Nc2ccncc2)cc1)C1CCCN1C(=O)C(c1ccccc1)C1CCCCC1 (stereo not shown) [Compound 555, 4-{Amino-[1-(2-cyclohexyl-2-phenyl-acetyl)-pyrrolidin-2-yl]-methyl}-N-pyridin-4-yl-benzamide]
5 to 50 µM	0.5 to 5 µM	NC(c1ccc(C(=O)Nc2ccncc2)cc1)C1CCCN1C(=O)C(c1ccccc1)C1CCCC1 (stereo not shown) [Compound 556, 4-{Amino-[1-(2-cyclopentyl-2-phenyl-acetyl)-pyrrolidin-2-yl]-methyl}-N-pyridin-4-yl-benzamide]
0.5 to 5 µM	0.05 to 0.5 µM	NC(c1ccc(C(=O)Nc2ccncc2)cc1)C1CCCN1C(=O)Cc1ccc(Br)cc1 (stereo not shown) [Compound 558, 4-(Amino-{1-[2-(4-bromo-phenyl)-acetyl]-pyrrolidin-2-yl}-methyl)-N-pyridin-4-yl-benzamide]
5 to 50 µM	0.5 to 5 µM	NC(c1ccc(C(=O)Nc2ccncc2)cc1)C1CCCN1C(=O)Cc1cccc(Cl)c1 (stereo not shown) [Compound 560, 4-(Amino-{1-[2-(3-chloro-phenyl)-acetyl]-pyrrolidin-2-yl}-methyl)-N-pyridin-4-yl-benzamide]
0.5 to 5 µM	0.5 to 5 µM	NC(c1ccc(C(=O)Nc2ccncc2)cc1)C1CCCN1C(=O)C1(c2ccc(Cl)cc2)CCCC1 (stereo not shown) [Compound 566, 4-(Amino-{1-[1-(4-chloro-phenyl)-cyclopentanecarbonyl]-pyrrolidin-2-yl}-methyl)-N-pyridin-4-yl-benzamide]
5 to 50 µM	0.05 to 0.5 µM	NC(c1ccc(C(=O)Nc2ccncc2)cc1)C1CCCN1C(=O)Cc1ccccc1F (stereo not shown) [Compound 567, 4-(Amino-{1-[2-(2-fluoro-phenyl)-acetyl]-pyrrolidin-2-yl}-methyl)-N-pyridin-4-yl-benzamide]
